Test results reported in PubChem BioAssay (NCI).
Values joined by “and” are separate entries in the source; they are usually repeats but may differ in a detail not shown here. Equal values may be shown once.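 Step 1: Grow cells in 96-well plates. Step 2: Expose to compound for 48 hours at 5 concentrations. Step 3: Interpolate endpoints linearly; if unreached, use highest concentration. GI50 = concentration required for 50% inhibition of growth. Definition used: TGI = concentration required for complete inhibition of growth.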

Legend:
Assay in all cases: NCI tumour cell line growth inhibition, 48 h
[1] = tested on: BT-549 breast
[2] = tested on: MCF7 breast
[3] = tested on: T-47D breast
[4] = tested on: MDA-N
[5] = tested on: KM20L2 colon
[6] = tested on: M19-MEL melanoma

Compound	GI50 [1]	TGI [1]	GI50 [2]	TGI [2]	GI50 [3]	TGI [3]	TGI [4] [µM]	TGI [5] [µM]	TGI [6] [µM]	GI50 [4] [µM]
CN(CCOc1ccc(C#N)cc1)CCOc1ccc(C#N)cc1	20.5 µM	> 100 µM	> 100 µM	> 100 µM	> 100 µM	> 100 µM				
COc1ccc2c(c1)OC(N(C(C)=O)C(C)=O)=C(C#N)C2c1ccc(F)cc1 (centres undefined)	2.22 µM	40.2 µM	0.593 µM	> 100 µM	4.98 µM	> 100 µM				
Nc1nc2c(c(=O)[nH]1)CN(c1ccc(S(N)(=O)=O)cc1)CN2		> 100 µM		> 100 µM		> 100 µM	> 100			
COc1ccc(-c2cncn2-c2ccc(OC)cc2)cc1	12.3 µM	32.5 µM	17.4 µM	41.2 µM						
COc1ccc2c3c(c(=O)n(C)c2c1OC)C=CC(C)(C)O3		> 100 µM		> 100 µM		> 100 µM	62.2			
Fc1ccc2[nH]c3c(NCCCN4CCOCC4)ncnc3c2c1	22.5 µM	99.4 µM	41.5 µM	> 100 µM	35.7 µM	> 100 µM				
CCCCn1cnc2c(SC)ncnc21		> 100 µM		> 100 µM		> 100 µM	> 100			
COc1cc(/C=C/C(=O)c2sc(Nc3ccccc3)nc2C)ccc1O								> 100	> 100	
OCc1ccc(-c2nn(Cc3ccccc3)c3ccccc23)o1	17.3 µM and 22.7 µM	37.4 µM and 53 µM	4.08 µM and 1.69 µM	24.8 µM and 57.1 µM	11.1 µM and 12.4 µM	43.4 µM and 26.2 µM				
COc1cc[nH]c1/C=C1\C(=O)Nc2ccc(F)c(I)c21	> 25 µM	> 25 µM	> 25 µM	> 25 µM	> 25 µM	> 25 µM				
Clc1nc(Cl)c2c(ncn2C/C=C\Cn2cnc3c(Cl)nc(Cl)nc32)n1	1.61 µM	2.97 µM	1.45 µM	3.17 µM	1.32 µM	3.06 µM				
Cn1ccnc1C(=O)/C=C/c1ccc(CC(=O)Nc2ccccc2)cc1	2.95 µM	7.54 µM	1.13 µM	10.3 µM	5.23 µM	> 25 µM				
Nc1cc(N)c(N)cc1N			1.79 µM	3.81 µM	4.57 µM	24.5 µM				
Fc1cccc(COc2ccc(Nc3ncnc4cc(-c5ccc[nH]5)sc34)cc2Cl)c1	0.977 µM	14.9 µM	0.0802 µM	2.76 µM	0.0977 µM	7.35 µM				
COc1ccc(-c2cn(-c3ccccc3)c(-c3ccccc3)n2)cc1OC	2.86 µM	18.5 µM	2.72 µM	13.1 µM	1.75 µM	20.2 µM				
CC(C)(C)c1ccc(S(=O)(=O)N[C@H]2CC[C@H]3[C@@H]4CCc5cc(OS(=O)(=O)O)ccc5[C@H]4CC[C@]23C)cc1	2.1 µM	4.2 µM	2.38 µM	5.9 µM	2.82 µM	9.96 µM				
C=C(C)C(=O)O[C@H]1[C@H]2[C@H](OC(=O)[C@H]2C)[C@H](O)[C@@H](C)[C@@H]2C=CC(=O)[C@]21C		15.5 µM		15.5 µM		12.5 µM	7.68			
O=C(CCl)N1c2ccccc2Sc2c1ccc1ccccc21	1.3 µM	2.63 µM	2.52 µM	6.47 µM	2.19 µM	6.07 µM				
CO/N=C(\C)c1ccc(Nc2cc(-c3ccccc3)nc3c(O)cccc23)cc1	15.5 µM	32.7 µM			9.07 µM	27.8 µM				
CC(=O)OCC1OC(n2ccc(=O)[nH]c2=O)C(OC(C)=O)C1OC(C)=O (centres undefined)	> 100 µM	> 100 µM	> 100 µM	> 100 µM	> 100 µM	> 100 µM				
CC(C)NC(=O)OCCS(=O)c1c(Cl)c(Cl)nn1C (centres undefined)				> 100 µM		> 100 µM	> 100			
C[C@H]1[C@H](C)CC[C@]2(C(=O)O)CC[C@]3(C)C(=CC[C@@H]4[C@@]5(C)C/C(=C/c6cccnc6)[C@H](O)C(C)(C)[C@@H]5CC[C@]43C)[C@H]12	18.3 µM	> 100 µM	12.1 µM	> 100 µM	9.88 µM	> 100 µM				

Compound	GI50 [1]	TGI [1]	GI50 [2]	TGI [2]	GI50 [3]	TGI [3]	TGI [4] [µM]	TGI [5] [µM]	TGI [6] [µM]	GI50 [4] [µM]
COc1cc(Nc2nc(N[C@H]3CCCC[C@@H]3N)nc3cc[nH]c(=O)c23)cc(OC)c1	1.57 µM	5.03 µM	1.37 µM	8.44 µM	12.8 µM	30.2 µM				
Clc1nc(Cl)c2ncn(Cc3ccc(COc4cccc(OCc5ccc(Cn6cnc7c(Cl)nc(Cl)nc76)cc5)c4)cc3)c2n1	25.6 µM	> 100 µM	28.9 µM	> 100 µM	21.5 µM	> 100 µM				
COc1c(N2CCN(CN3C(=O)C(=Nc4ccc(S(=O)(=O)Nc5ncccn5)cc4)c4ccccc43)C(C)C2)c(F)cc2c(=O)c(C(=O)O)cn(C3CC3)c12 (centres undefined)	19.6 µM	> 50 µM	16.5 µM	> 50 µM						
CCCCN(Cc1ccc(F)cc1)c1ccc(CO)c(Cl)c1	19.1 µM	34.6 µM	2.3 µM	15 µM	1.27 µM	10.2 µM				
CC(=O)O[C@@H]1CC2C(C)(C)CCCC2(C)C2=C1C(=O)C(C(C)C)=CC2=O (some centres undefined)	0.621 µM	3.05 µM	1.05 µM	> 100 µM	1.49 µM	7.31 µM				
Oc1ccc(CCCCCCc2ccc(O)cc2)cc1	2.94 µM	18.7 µM	6.91 µM	22.3 µM	8.03 µM	27.2 µM				
C[C@@H]1COCCN1c1cc(C2(S(C)(=N)=O)CC2)nc(-c2ccnc3[nH]ccc23)n1 (some centres undefined)			0.528 µM	70.2 µM	3.15 µM	19.5 µM				
CCCCCCCCCCCC[n+]1ccc(CCCCCCCCC)cc1					0.28 µM	1.54 µM				
CC1OC2CC(=O)OC2C2=C1C(=O)c1c(O)c3c(c(O)c1C2=O)C1CC(O)C3(O)C(C)O1 (centres undefined)	1.1 µM	2.32 µM	0.126 µM	0.366 µM	0.336 µM	1.55 µM				
CC[C@H](CC#N)OC(=O)N[C@@H](C)c1cccc(NC(=O)Nc2ccc(-c3cnco3)c(OC)c2)c1	0.238 µM	34 µM	0.0458 µM	18.2 µM	0.165 µM	21.4 µM				
O=C1C(Cl)=C(Nc2cccc(O)c2)C(=O)N1c1cc(Cl)c(Cl)cc1Cl			20.3 µM	54.7 µM	42.1 µM	> 100 µM				
COC(=O)CNC(=O)[C@@H](OC)[C@@H]1Cc2cc3cc(OC4CC(OC5CC(O)C(O)C(C)O5)C(O)C(C)O4)c(C)c(O)c3c(O)c2C(=O)[C@H]1OC1CC(OC2CC(OC3CC(C)(O)C(O)C(C)O3)C(O)C(C)O2)C(O)C(C)O1 (some centres undefined)	0.114 µM	1.1 µM	0.0546 µM	> 50 µM	0.256 µM	> 50 µM				
CN(C)CCOc1ccc2c(c1)C/C(=C/c1ncc([N+](=O)[O-])n1C)C2=O		3.74 µM		7.11 µM		32.8 µM	16.8			
NC(C(=O)[O-])C(=O)[O-].NC1CCCCC1N.[Pt+4]	> 100 µM	> 100 µM	1.71 µM	5.49 µM			> 100			7.47
CC(CNC(Cc1ccccc1)c1ccccc1)NC(Cc1ccccc1)c1ccccc1 (centres undefined)	2.01 µM	5.16 µM	2.08 µM	5.16 µM	1.96 µM	4.95 µM				
Cc1cc(C(C#N)c2ccc(Cl)cc2)c(Cl)cc1NC(=O)c1cc(I)cc(I)c1O (centres undefined)	4.03 µM and 8.64 µM	11.8 µM and 23.4 µM	6.58 µM and 15.7 µM	23.8 µM and 32.4 µM	19.1 µM and 15.2 µM	46.9 µM and 37 µM				
CN(C)C(=S)N=Nc1c(O)[nH]c2ccccc12	0.763 µM	20.8 µM	0.552 µM	13.3 µM	0.404 µM	10.2 µM				
C=C1C(=O)O[C@H]2[C@H]1CC/C(COC(=O)N1CCC[C@H]1C(=O)Nc1ccc(OC)c(C(N)=O)c1O)=C\CC[C@@]1(C)O[C@@H]21	1.62 µM	5.12 µM	2.38 µM	9.55 µM	2.42 µM	6.7 µM				
CC(=O)Nc1ccc2c(c1)oc(=O)c1cc(NC(C)=O)ccc12	> 100 µM	> 100 µM	59.8 µM	> 100 µM	59.6 µM	> 100 µM				
O=C1/C(=C/c2ccc(O)cc2)COc2ccc(-c3ccccc3)cc21	2.64 µM	13 µM	2.8 µM	12.4 µM	3.76 µM	25.6 µM				
c1cnc2[nH]cc(-c3csc(-c4cn(CCCCN5CCOCC5)c5ccccc45)n3)c2c1	2.13 µM	5.19 µM	1.56 µM	3.57 µM	1.33 µM	3.9 µM				
CC(=O)[O-].CC(=O)[O-].[NH2-].[Pt+2].c1ccc2cnccc2c1			11.3 µM	42.8 µM	1.61 µM	24.7 µM				
